Assay [1] concerns the target human prostacyclin (PGI2) receptor (Homo sapiens (Human), UniProt P43119). Nature of the assay: HTRF assay for direct cAMP measurement. The note with it: recombinant CHO-K1 cells stably transfected with human prostacyclin receptor; cAMP increase. The class given is cell-based. From the text: Example 2: Homogeneous Time-Resolved Fluorescence (HTRF®) Assay for Direct cAMP Measurement
Compounds were screened for agonists of the human prostacyclin (PGI2) receptor using the HTRF® assay for direct cAMP measurement (Gabriel et al., ASSAY and Drug Development Technologies, 1:291-303, 2003) and recombinant CHO-K1 cells stably transfected with human prostacyclin receptor. CHO-K1 cells were obtained from ATCC® (Manassas, Va.; Catalog # CCL-61). An agonist of the prostacyclin receptor was detected in HTRF® assay for direct cAMP measurement as a compound which increased cAMP concentration. HTRF® assay also was used to determine EC50 values for prostacyclin receptor agonists.
The HTRF® assay kit was purchased from Cisbio-US, Inc. (Bedford, Mass.; Catalog #62AM4PEC). The HTRF® assay supported by the kit is a competitive immunoassay between endogenous cAMP produced by the CHO-K1 cells and tracer cAMP labeled with the dye d2. The tracer binding is visualized by a monoclonal anti-cAMP antibody labeled with Cryptate. The specific signal (i.e., fluorescence resonance energy transfer, FRET) is inversely proportional to the concentration of unlabeled cAMP in the standard or sample.
The fluorescence ratio (665 nm/620 nm) of the standards (0.17 to 712 nM cAMP) included in the assay was calculated and used to generate a cAMP standard curve according to the kit manufacturer's instructions. The fluorescence ratio of the samples (test compound or compound buffer) was calculated and used to deduce respective cAMP concentrations by reference to the cAMP standard curve.
The HTRF® assay was carried out using a two-step protocol essentially according to the kit manufacturer's instructions, in 20 μL total volume per well in 384-well plate format (ProxiPlates; PerkinElmer, Fremont, Calif.; catalog #6008280). To each of the experimental wells was transferred 3000 recombinant CHO-K1 cells in 5 μL assay buffer (phosphate buffered saline containing calcium chloride and magnesium chloride (Invitrogen, Carlsbad, Calif.; catalog #14040) supplemented with IBMX (100 μM) and rolipram (10 μM) (phosphodiesterase inhibitors; Sigma-Aldrich, St. Louis, Mo.; catalog #15879 and catalog #R6520, respectively) and 0.1% bovine serum albumin (BSA) fraction V (Sigma-Aldrich; catalog # A3059)), followed by test compound in 5 μL assay buffer or 5 μL assay buffer. The plate was then incubated at room temperature for 1 h. […] The plate was then further incubated at room temperature for 1 h, after which the assay plate was read.
The HTRF® readout was accomplished using a PHERAstar (BMG LABTECH Inc., Durham, N.C.) or EnVision™ (PerkinElmer, Fremont Calif.) microplate reader.
On the technique in general: In TR-FRET formats the signal depends on donor and acceptor labels being close together.

In assay [2] the test system is human platelet-rich plasma (PRP). Description: Human platelet aggregation inhibition test (ADP-induced, PRP). The format is cell-based. The following applies: inhibition of aggregation induced by 1x10^-5 M ADP in human PRP. As for the experimental part: Example 3: Human Platelet Aggregation Inhibition Test
Blood collected from healthy human volunteers in aqueous trisodium citrate solution was centrifuged at 150 g for 15 min and the upper layer was recovered to obtain platelet-rich plasma (PRP). The residual blood was centrifuged at 3000 g for 10 min and the supernatant was collected as platelet-poor plasma (PPP). Platelet concentration in the PRP was determined using the Z series Beckman Coulter particle counter (Beckman, Fullerton, Calif.) and adjusted to 250,000 platelets/μL using PPP. 480 μL of PRP was pre-incubated at 37° C. and stirred at 1200 rpm with 10 μL aqueous test compound solution for 1 min prior to induction of aggregation by the addition of 10 μL of aqueous adenosine diphosphate (ADP) solution to adjust the final ADP concentration in the PRP to 1×10^−5 M. The maximal amplitude of aggregation response within 3 min was determined and measured in triplicate using the Chronolog model 490 aggregometer (Chrono-log Corp., Havertown, Pa.). Percent inhibition of aggregation was calculated from the maximum decrease in optical density of the control (addition of water in place of the test compound solution) sample and of the samples containing test compound. The test compound was added to adjust the final concentration to the range 10^−9 to 10^−4 M, and IC50 values were determined by inhibition percentage of aggregation at each concentration.

Assay [3] has as its system MCT-induced pulmonary arterial hypertension in rat. Nature of the assay: Rat monocrotaline (MCT) model of pulmonary arterial hypertension. The format is in vivo. The note with it: 30 mg/kg oral gavage twice a day for 21 days; 60 mg/kg MCT s.c.; male Wistar rats; Day 22. As for the experimental part:
Example 4: Rat Model of Pulmonary Arterial Hypertension
Male Wistar rats (100-150 g at start of study) (Charles River Laboratories, Wilmington, Mass.) were housed two per cage and maintained in a humidity—(40-60%) and temperature—(68-72° F.) controlled facility on a 12 hr:12 hr light/dark cycle (lights on at 6:30 am) with free access to food (Harlan Teklad, Orange Calif., Rodent Diet 8604) and water. Rats were allowed one week of habituation to the animal facility before testing.
The rat monocrotaline (MCT) model is a standard and well-accepted model of pulmonary arterial hypertension. MCT induces acute pulmonary endothelial damage associated with pulmonary vascular inflammation. […]
Rats were randomly given a single subcutaneous injection of either 60 mg/kg MCT (Sigma, St. Louis, Mo.) or 0.9% saline (sham) and assigned to receive oral administration of 20% hydroxypropyl beta-cyclodextrin (vehicle) or test compound (30 mg/kg; FIGS. 1 and 2). […] Heart chamber weights were measured on Day 22. […] The ratio of right ventricular (RV) weight to left ventricle plus septum (LV+S) weight (this ratio is indicated as “RV/(LV+S)” in FIGS. 1 and 2) was calculated as an index of the hypertrophic response to the induced pulmonary arterial hypertension and, as such, as an index of a test compound's therapeutic efficacy for pulmonary arterial hypertension.

The record followed here is patent US10214518B2, “Pyrazolyl substituted carbonic acid derivatives as modulators of the prostacyclin (PGI2) receptor useful for the treatment of disorders related thereto” (Arena Pharmaceuticals, Inc., priority 2008, dated 2019).

human prostacyclin (PGI2) receptor, sequence (P43119 whole entry): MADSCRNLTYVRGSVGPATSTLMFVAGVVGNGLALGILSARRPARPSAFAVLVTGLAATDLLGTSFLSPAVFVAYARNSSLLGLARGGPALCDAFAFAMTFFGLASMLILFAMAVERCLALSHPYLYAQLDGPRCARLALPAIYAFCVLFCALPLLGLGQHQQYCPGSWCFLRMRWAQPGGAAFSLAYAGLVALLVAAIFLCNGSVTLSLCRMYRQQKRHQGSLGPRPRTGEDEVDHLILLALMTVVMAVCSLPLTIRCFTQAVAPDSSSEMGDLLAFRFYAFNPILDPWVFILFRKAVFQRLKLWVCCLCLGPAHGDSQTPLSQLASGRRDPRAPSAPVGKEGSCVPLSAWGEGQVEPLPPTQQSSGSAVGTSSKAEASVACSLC

The term EC50 denotes the concentration needed to bring the measured effect to its halfway point. By IC50 is commonly meant the concentration that gives 50% inhibition. Consider `N#CCSc1c(-c2ccccc2)c(-c2ccccc2)nn1C[C@H]1CC[C@@H](COCC(=O)O)CC1` [Compound 184, 2-(((1s,4s)-4-((5-(Cyanomethylthio)-3,4-diphenyl-1H-pyrazol-1-yl)methyl)cyclohexyl)methoxy)acetic Acid], for which the EC50 in assay [1] is 11 nM. The same compound yielded an IC50 in assay [2] of 20 nM. On to `COc1cccc(-c2c(-c3ccccc3)nn(C[C@H]3CC[C@@H](COCC(=O)O)CC3)c2C)c1` [Compound 14, 2-(((1s,4s)-4-((4-(3-Methoxyphenyl)-5-methyl-3-phenyl-1H-pyrazol-1-yl)methyl)cyclohexyl)methoxy)acetic Acid], for which the “right ventricle hypertrophic response, RV/(LV+S)” value in assay [3] is “inhibited the hypertrophic response”.

In assay [2], `CSc1c(-c2cncc(F)c2)c(-c2ccccc2)nn1C[C@H]1CC[C@@H](COCC(=O)O)CC1` [Compound 135, 2-(((1s,4s)-4-((4-(5-Fluoropyridin-3-yl)-5-(methylthio)-3-phenyl-1H-pyrazol-1-yl)methyl)cyclohexyl)methoxy)acetic Acid] yielded an IC50 of 220 nM. This counts as sub-micromolar. Turning to `COc1cccc(-c2c(-c3ccccc3)nn(C[C@H]3CC[C@@H](COCC(=O)O)CC3)c2SC)c1` [Compound 31, 2-(((1s,4s)-4-((4-(3-Methoxyphenyl)-5-(methylthio)-3-phenyl-1H-pyrazol-1-yl)methyl)cyclohexyl)methoxy)acetic Acid], the “right ventricle hypertrophic response, RV/(LV+S)” value in assay [3] is given as “inhibited the hypertrophic response”. As for `COc1cccc(-c2c(-c3ccccc3)nn(C[C@H]3CC[C@@H](COCC(=O)O)CC3)c2SCCO)c1` [Compound 198, 2-(((1s,4s)-4-((5-(2-Hydroxyethylthio)-4-(3-methoxyphenyl)-3-phenyl-1H-pyrazol-1-yl)methyl)cyclohexyl)methoxy)acetic Acid], in assay [1], the EC50 worked out at 2 nM. `CSc1c(-c2ccc(C)s2)c(-c2ccccc2)nn1C[C@H]1CC[C@@H](COCC(=O)O)CC1` [Compound 111, 2-(((1s,4s)-4-((5-(Methylthio)-4-(5-methylthiophen-2-yl)-3-phenyl-1H-pyrazol-1-yl)methyl)cyclohexyl)methoxy)acetic Acid]: the EC50 in assay [1] was 16 nM. The IC50 in assay [2] came to 28 nM.

Take `CCSc1c(-c2cccc(OC)c2F)c(-c2ccccc2)nn1C[C@H]1CC[C@@H](COCC(=O)O)CC1` [Compound 90, 2-(((1s,4s)-4-((5-(Ethylthio)-4-(2-fluoro-3-methoxyphenyl)-3-phenyl-1H-pyrazol-1-yl)methyl)cyclohexyl)methoxy)acetic Acid]: in assay [1], the EC50 was found to be 7 nM. `O=C(O)COC[C@H]1CC[C@@H](Cn2nc(-c3ccccc3)c(-c3ccccc3)c2SCCO)CC1` [Compound 146, 2-(((1s,4s)-4-((5-(2-Hydroxyethylthio)-3,4-diphenyl-1H-pyrazol-1-yl)methyl)cyclohexyl)methoxy)acetic Acid] registered an IC50 in assay [2] of 70 nM. In other words, the double-digit nanomolar range.
